For data set [1] the following is noted: Amprenavir by pump + 8 Gy vs 8 Gy alone, right hind leg.
Data set [2] relates to SQ20B xenograft tumors. Briefly: In vivo to in vitro clonogenic assay in nude mice with SQ20B tumors. Also on record: species or system mouse. The settings on record: osmotic pump placed 2 days prior, 8 Gy, FIG. 11. The procedure: The mice in the study had SQ20B xenograft tumors on a hind leg. The pump was placed into the mouse 2 days prior to experiment. On the day of the experiment, the mouse was anesthetized and irradiated to 8 Gy. The tumor was then harvested and a cell suspension made. The cells were plated and the plating efficiency determined to indicate the number of cells that were viable and able to reproduce by forming colonies in each individual group (plating efficiency).
FIG. 8 illustrates the results of an in vivo to in vitro clonogenic assay in nude mice with SQ20B tumors.

For data set [3] the following is noted: dose of about 1200 mg bid; cited from earlier work.
The test system of data set [4] is Akt. Description: Western blot analysis of Akt phosphorylation in SQ20B cells. The class given is cell-based, human. The protocol:
Using Western blot analysis, a human head-and-neck cancer cell line, SQ20B, (American Type Culture Collection; Manassas, Va.) containing a constitutively-active EGFR receptor and thus, increased signaling through PI3K, was examined for Akt phosphorylation.
Cells were lysed without trypsinization by rinsing culture dishes once with PBS followed by lysis with reducing Laemeli sample buffer. Samples were boiled, sheared, and clarified by centrifugation and stored at −20° C. […] Membranes were blocked in PBS containing 0.1% Tween-20 and 5% powdered milk before primary antibody addition. The dilution of the primary antibody was 1:2000. Antibody binding was detected using the ECL chemiluminescence kit (Amersham, Arlington Heights, Ill.). Images were digitized using an Arcus II scanner, and figures were assembled using Adobe Photoshop 3.0 and Microsoft Power Point programs.
On the technique in general: Immunoblotting shows a protein as a band on a membrane.

The test system of data set [5] is T24. Description: Clonogenic assay, radiation sensitization of T24 cells. The settings on record: control SF2 0.560 +/− 0.061. It is filed as cell-based, human. The procedure:
(§1) Cultures of cells in log growth phase were counted and plated in 60-mm dishes containing 4 ml of media. […] Cells were irradiated with a Mark I cesium irradiator (J. L. Shepherd, San Fernando, Calif.) at a dose rate of 1.6 Gy/min. Colonies were stained and counted 10-14 days after irradiation. A light box was used to assist in counting colonies. The surviving fraction was calculated by dividing the number of colonies formed by the number of cells plated times plating efficiency (Table 1). Each point value represents the mean surviving fraction from at least six replicate dishes.

Data set [6] relates to A549. Description: Clonogenic assay, radiation sensitization of A549 cells. It is filed as cell-based. To be noted: control SF2 0.570 +/− 0.042. The protocol: as §1
Data set [7] concerns MIAPACA2. Description: Clonogenic assay, radiation sensitization of MIAPACA2 cells. The class given is cell-based. To be noted: control SF2 0.906 +/− 0.086. The procedure:
as §1

In data set [8] the test system is SQ20B cells. Description: Clonogenic assay, radiosensitization of SQ20B cells. It is filed as cell-based, human. The procedure:
Cultures in log growth phase were counted and plated in 60-mm dishes containing 4 ml of media. The cells were allowed to attach and inhibitors were added to cultures at least one hour prior to radiation. Cells were irradiated with a Mark I cesium irradiator (J. L. Shepherd, San Fernando, Calif.) at a dose rate of 1.6 Gy/min. Colonies were stained and counted 10-14 days after irradiation. Typically, at least 6 dishes are prepared at each dose level of radiation.
as §1

Data set [9] concerns REF. Briefly: Clonogenic assay, radiation sensitization of REF cells. The class given is cell-based. The settings on record: control SF2 0.408 +/− 0.040. The procedure:
as §1

We go through one compound from patent US20060135510A1 (The Trustees of the University of Pennsylvania, priority 2004, published 2006).

The structures appear in SMILES notation.

For `CC(C)CN(C[C@@H](O)[C@H](Cc1ccccc1)NC(=O)O[C@H]1CCOC1)S(=O)(=O)c1ccc(N)cc1` [Amprenavir, amprenavir], the “leg contracture or fibrosis” value in [1] is listed as “No differences”. Further, the “cell kill, combination of radiation and Amprenavir” value in [2] is “significant increase in cell kill”; in data set [8] (clonogenic assay in vitro, FIG. 7) it was “increase cell kill”. Further, in data set [3], the peak plasma concentration is 15.1 µM. For the same compound, the trough plasma concentration in [3] was 0.63 µM. In addition, the “signaling in the Ras pathway” value in data set [4] (FIG. 4, SQ20b cells and T24 cells) is on record as “inhibits”. The “phosphorylation of Akt at Ser 473” value in data set [4] (SQ20B cells, 10 μM Amprenavir, Western blot) was “down-regulation”; in data set [4] (SQ20B cells, 20 μM Amprenavir, Western blot (FIG. 3 and FIG. 5)), “abolished”. The “phosphorylation of Akt at the Thr 308 site” value in data set [4] (SQ20B cells, 10 μM or 20 μM Amprenavir) is on record as “no change”. In addition, the “Amprenavir SF2” value is 0.370 +/− 0.022 in [5]; 0.487 +/− 0.030 in data set [6]; 0.664 +/− 0.051 in data set [7]; 0.432 +/− 0.017 in data set [8] (SQ20B, control SF2 0.691 +/− 0.042); 0.402 +/− 0.136 in data set [9]. For the same compound, the “survival difference in cell kill numbers” value in data set [8] (30 fractions of 2 Gy, SF2 0.51 vs 0.7) is reported as ~4 log. For the same compound, in data set [8] (SQ20B cells, 5 μM Amprenavir + 2 Gy radiation, control 70% (FIG. 6)), the “surviving fraction after 2 Gy (SF2)” value was 51%. For the same compound, the “survival value after 30 fractions of 2 Gy” value in data set [8] (calculated from SF2 0.51, without drug 2.25×10^−5) is on record as 1.68×10^−9.
